# Measurements reported in publication PMC3953453 (Molecular pharmaceutics, 2012).
# Where two headings read alike, the source gives them in different places.
# Key:
# [1] = test system: β-glucuronidase in intestinal perfusate; assay: biological stability in blank intestinal perfusate; conditions: for effect on hydrolysis of wogonoside in blank intestinal perfusate: wogonoside 20 μM, 0.1 or 4.4 mM saccharolactone, 20 mM gluconolactone
# [2] = test system: perfused rat intestine (duodenum, upper jejunum, terminal ileum and colon); assay: four-site perfused rat intestinal model; format: in vivo; conditions: for effect of co-perfusion on absorption and metabolism of wogonoside: 0.1 mM saccharolactone, 20 mM gluconolactone, or antibiotics (100 units penicillin and 0.1mg streptomycin/mL)
# [3] = stability in diluted bile solution; format: in vitro ADME, rat; conditions: 20 μM, 4-fold diluted bile solution, 37°C
# [4] = chemical stability of wogonoside; format: physicochemical
# [5] = test system: β-glucuronidase of microbial enzymatic extract (rat feces); assay: hydrolysis of wogonoside by microbial enzymatic extract from rat feces; format: in vitro ADME
# [6] = test system: β-glucuronidase in the rat intestine perfusates; assay: hydrolysis of wogonoside in blank rat intestinal perfusate; format: in vitro ADME; conditions: for Vmax of wogonoside hydrolysis / Km: blank perfusate; for Km: read-out: Km of wogonoside hydrolysis
# [7] = molecular target: T1, β-glucuronidase derived from intestinal S9 fraction (Rattus norvegicus, UniProt P06760); assay: hydrolysis of wogonoside by rat intestine S9 fractions; format: in vitro ADME; conditions: for Km: read-out: Km of wogonoside hydrolysis
# T1 sequence (P06760 23-648): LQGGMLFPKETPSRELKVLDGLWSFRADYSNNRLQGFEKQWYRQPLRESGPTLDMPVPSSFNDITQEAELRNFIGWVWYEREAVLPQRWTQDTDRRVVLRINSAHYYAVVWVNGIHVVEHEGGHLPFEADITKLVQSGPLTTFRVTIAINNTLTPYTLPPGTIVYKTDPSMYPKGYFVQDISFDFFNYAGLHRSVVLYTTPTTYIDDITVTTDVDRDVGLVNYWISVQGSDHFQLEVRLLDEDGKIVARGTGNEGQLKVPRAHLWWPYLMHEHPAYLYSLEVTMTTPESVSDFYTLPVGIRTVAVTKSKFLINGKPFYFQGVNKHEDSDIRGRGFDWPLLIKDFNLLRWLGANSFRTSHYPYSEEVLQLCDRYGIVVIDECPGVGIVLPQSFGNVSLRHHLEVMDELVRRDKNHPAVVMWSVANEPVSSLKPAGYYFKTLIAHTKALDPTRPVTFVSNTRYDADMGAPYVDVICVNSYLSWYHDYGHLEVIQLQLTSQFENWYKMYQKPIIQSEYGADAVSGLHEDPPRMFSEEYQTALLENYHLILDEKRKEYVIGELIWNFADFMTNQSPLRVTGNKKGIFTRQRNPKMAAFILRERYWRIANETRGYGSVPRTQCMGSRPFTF
# [8] = cited from earlier work
smiles,measurement,setting,value
"O=C1O[C@H](CO)[C@@H](O)[C@H](O)[C@H]1O [gluconolactone, reference compound]",effect on hydrolysis of wogonoside in blank intestinal perfusate,[1],did not inhibit the hydrolysis of wogonoside
same,effect of co-perfusion on absorption and metabolism of wogonoside,[2],did not affect its absorption
O=C(O)[C@@H](O)[C@H]1OC(=O)[C@H](O)[C@H]1O [saccharolactone],effect on hydrolysis of wogonoside in blank intestinal perfusate,[1],inhibit the hydrolysis of wogonoside in all perfusate
same,effect of co-perfusion on absorption and metabolism of wogonoside,[2],affected both absorption and metabolism of wogonoside
same,effect of co-perfusion on absorption and metabolism of wogonin,[2]; co-perfused with 0.1 mM saccharolactone,did not affect the absorption or metabolism of wogonin
"COc1c(O[C@@H]2O[C@H](C(=O)O)[C@@H](O)[C@H](O)[C@H]2O)cc(O)c2c(=O)cc(-c3ccccc3)oc12 [wogonoside, wogonin-7-O-glucuronide]",stability in bile,[3],fairly stable
same,chemical stability,"[4]; pH 5.5, pH 6.5 and pH 7.4, 37°C",chemically stable
same,recovery (chemical stability),"[4]; pH 5.5, pH 6.5 and pH 7.4, 8 h incubation at 37°C",104%-106%
same,Vmax of wogonoside hydrolysis,[5]; Microflora enzymatic extract,49.64 nmol/min/mg
same,highest hydrolysis rate,"[5]; fecal extract, pH 5.5, wogonoside 20μM",249.211 ± 0.178 nmol/min/mg
same,Km,"[5]; read-out: Km of wogonoside hydrolysis, Microflora enzymatic extract",7.7 µM
same,maximal hydrolysis rate,"[6]; blank jejunal perfusate, pH 4.5, wogonoside 20μM",1.559 ± 0.008 nmol/min/mg
same,Vmax of wogonoside hydrolysis,[6]; Col 60-90min,0.15 nmol/min/mg
same,Vmax of wogonoside hydrolysis,[6]; Duo 60-90min,0.15 nmol/min/mg
same,Vmax of wogonoside hydrolysis,[6]; Ile 60-90min,0.85 nmol/min/mg
same,Vmax of wogonoside hydrolysis,[6]; Ile 120-150min,0.30 nmol/min/mg
same,Vmax of wogonoside hydrolysis,[6]; Jej 0-30min,1.84 nmol/min/mg
same,Vmax of wogonoside hydrolysis,[6]; Jej 30-60min,0.93 nmol/min/mg
same,Vmax of wogonoside hydrolysis,[6]; Jej 60-90min,0.47 nmol/min/mg
same,Vmax of wogonoside hydrolysis,[6]; Jej 90-120min,0.37 nmol/min/mg
same,Vmax of wogonoside hydrolysis,[6]; Jej 120-150min,0.18 nmol/min/mg
same,Km,[6]; Col 60-90min,19.7 µM
same,Km,[6]; Duo 60-90min,19.9 µM
same,Km,[6]; Ile 60-90min,6.33 µM
same,Km,[6]; Ile 120-150min,6.96 µM
same,Km,[6]; Jej 0-30min,19.8 µM
same,Km,[6]; Jej 30-60min,15.8 µM
same,Km,[6]; Jej 60-90min,18.7 µM
same,Km,[6]; Jej 90-120min,17 µM
same,Km,[6]; Jej 120-150min,25.5 µM
same,stability in blank intestinal perfusate,"[1]; blank perfusate of duodenum, jejunum, ileum, colon, 37°C, up to 8 h",unstable
same,stability in blank intestinal perfusate after removal of bacteria,"[1]; centrifugation (13,000 rpm, 30 min) and aseptic filtration, 20 μM",did not improve stability of wogonoside
same,Vmax of wogonoside hydrolysis,[7]; Duo S9 fraction,2.06 nmol/min/mg
same,Vmax of wogonoside hydrolysis,[7]; Ile S9 fraction,0.26 nmol/min/mg
same,Vmax of wogonoside hydrolysis,[7]; Jeu S9 fraction,1.68 nmol/min/mg
same,maximal hydrolysis rate,"[7]; jejunal S9 fraction, pH 4.5, wogonoside 20μM",5.195 ± 0.103 nmol/min/mg
same,optimal pH of glucuronidase activity,"[7]; jejunal S9 fraction, wogonoside 20μM, 37°C, 30 min",4.5
same,Km,[7]; Duo S9 fraction,30 µM
same,Km,[7]; Ile S9 fraction,25.7 µM
same,Km,[7]; Jeu S9 fraction,28.2 µM
same,metabolite found in perfusate (interconversion),[2]; 5 μM and 20 μM perfused,significant amounts of wogonin were recovered in the wogonoside perfusate
same,intestinal absorption,"[2]; 5 μM and 20 μM, four segments",slower in every intestine regions when compared to wogonin
Oc1ccc(/C=C/c2cc(O)cc(O)c2)cc1 [resveratrol],bioavailability,[8],< 5%
